Data published in patent US20220248678A1, “HERBICIDAL COMPOUNDS” (SYNGENTA CROP PROTECTION AG, priority 2019, published 2022).

What was measured:
Assay in all cases: Post-emergence efficacy, glasshouse
Type in all cases: in vivo
Conditions in all cases: after 13 days, 100=total damage to plant, 0=no damage to plant
[1] = test system: Amaranthus palmeri (AMAPA)
Experimental: (§1) Seeds of a variety of test species were shown in standard soil in pots. After cultivation for 14 days (post-emergence) under controlled conditions in a glasshouse (at 24/16° C., day/night; 14 hours light; 65% humidity), the plants were sprayed with an aqueous spray solution derived from the dissolution of the technical active ingredient for each of compounds 1 to 26 from Table A above, in a small amount of acetone and a special solvent and emulsifier mixture referred to as IF50 (11.12% Emulsogen EL360 TM+44.44% N-methylpyrrolidone+44.44% Dowanol DPM glycol ether), to create a 50 g/I solution which was then diluted to required concentration using 0.25% or 1% Empicol ESC70 (Sodium lauryl ether sulphate)+1% ammonium sulphate in water as diluent. These spray test compositions are described as composition numbers C1 to C26, with the numerical value corresponding to the compound number from Table A.
(§2) The test plants were then grown in a glasshouse under controlled conditions (at 24/16° C., day/night; 14 hours light; 65% humidity) and watered twice daily. After 13 days the test was evaluated (100=total damage to plant; 0=no damage to plant).
(§3) Ipomoea hederacea (IPOHE), Euphorbia heterophylla (EPHHL), Chenopodium album (CHEAL), Amaranthus palmeri (AMAPA), Lolium perenne (LOLPE), Digitaria sanguinalis (DIGSA), Eleusine indica (ELEIN), Echinochloa crus-galli (ECHCG), Setaria faberi (SETFA)

[2] = test system: Digitaria sanguinalis (DIGSA)
Experimental: as §1, §2, §3

Setaria faberi (SETFA) = test system: Setaria faberi (SETFA)
Experimental: as §1, §2, §3

[3] = test system: Chenopodium album (CHEAL)
Experimental: as §1, §2, §3

Eleusine indica (ELEIN) = test system: Eleusine indica (ELEIN)
Experimental: as §1, §2, §3

Lolium perenne (LOLPE) = test system: Lolium perenne (LOLPE)
Experimental: as §1, §2, §3

[4] = test system: Ipomoea hederacea (IPOHE)
Experimental: as §1, §2, §3

[5] = test system: Euphorbia heterophylla (EPHHL)
Experimental: as §1, §2, §3

[6] = test system: Echinochloa crus-galli (ECHCG)
Experimental: as §1, §2, §3

| SMILES | Control of weed species AMAPA ([1]; 1000 g/Ha) | Control of weed species DIGSA ([2]; 1000 g/Ha) | Control of weed species SETFA (Setaria faberi (SETFA); 1000 g/Ha) | Control of weed species CHEAL ([3]; 1000 g/Ha) | Control of weed species ELEIN (Eleusine indica (ELEIN); 1000 g/Ha) | Control of weed species LOLPE (Lolium perenne (LOLPE); 1000 g/Ha) | Control of weed species IPOHE ([4]; 1000 g/Ha) | Control of weed species EPHHL ([5]; 1000 g/Ha) | Control of weed species ECHCG ([6]; 1000 g/Ha) | Control of weed species AMAPA ([1]; 500 g/Ha) | Control of weed species DIGSA ([2]; 500 g/Ha) | Control of weed species SETFA (Setaria faberi (SETFA); 500 g/Ha) | Control of weed species CHEAL ([3]; 500 g/Ha) | Control of weed species ELEIN (Eleusine indica (ELEIN); 500 g/Ha) | Control of weed species LOLPE (Lolium perenne (LOLPE); 500 g/Ha) | Control of weed species IPOHE ([4]; 500 g/Ha) | Control of weed species EPHHL ([5]; 500 g/Ha) | Control of weed species ECHCG ([6]; 500 g/Ha) |
| --- | --- | --- | --- | --- | --- | --- | --- | --- | --- | --- | --- | --- | --- | --- | --- | --- | --- | --- |
| C[n+]1cc(P(=O)([O-])Oc2ccccc2)c2ccccc2n1 [Composition C11] | 100 | 70 | 50 | 70 | 80 | 30 | 70 | 60 | 20 |  |  |  |  |  |  |  |  |  |
| CCCCOP(=O)([O-])c1c[n+](C)nc2ccccc12 [Composition C12] |  |  |  |  |  |  |  |  |  | 100 | 70 | 70 | 100 | 100 | 40 | 100 | 100 | 70 |
| COP(=O)([O-])c1c[n+](C)nc2ccc(C)cc12 [Composition C13] |  |  |  |  |  |  |  |  |  | 100 | 100 | 100 | 100 | 100 | 30 | 70 | 100 | 90 |
| COP(=O)([O-])c1c[n+](C)nc2cc(C)ccc12 [Composition C14] | 100 | 80 | 90 | 100 | 100 | 60 | 100 | 100 | 70 |  |  |  |  |  |  |  |  |  |
| COP(=O)([O-])c1c[n+](C)nc2c(C)cccc12 [Composition C15] | 40 | 70 | 50 | 50 | 80 | 20 | 20 | 100 | 50 |  |  |  |  |  |  |  |  |  |
| COc1ccc2n[n+](C)cc(P(=O)([O-])OC)c2c1 [Composition C16] | 100 | 80 | 80 | 90 | 100 | 50 | 70 | 90 | 90 |  |  |  |  |  |  |  |  |  |
| COc1ccc2c(P(=O)([O-])OC)c[n+](C)nc2c1 [Composition C17] | 10 | 10 | 10 | 10 | 10 | 0 | 10 | 20 | 10 |  |  |  |  |  |  |  |  |  |
| COc1cccc2c(P(=O)([O-])OC)c[n+](C)nc12 [Composition C18] | 100 | 100 | 100 | 80 | 100 | 80 | 80 | 100 | 100 |  |  |  |  |  |  |  |  |  |
| COP(=O)([O-])c1c[n+](C)nc2ccc(C(F)(F)F)cc12 [Composition C19] |  |  |  |  |  |  |  |  |  | 10 | 10 | 10 | 10 | 10 | 10 | 0 | 0 | 10 |
| COP(=O)([O-])c1c[n+](C)nc2cc(C(F)(F)F)ccc12 [Composition C20] | 40 | 20 | 10 | 40 | 10 | 10 | 60 | 30 | 10 |  |  |  |  |  |  |  |  |  |
